Results taken from patent publication US8067611B2, “Substituted 1-(thiazolyl)-and 1-(isothiazolyl)pyrazol-4-ylacetic acids, processes for their preparation and their use as herbicides and plant growth regulators” (Bayer CropScience AG, priority 2008, dated 2011).

Legend:
Type in all cases: in vivo
Alopecurus myosuroides = test: Pre-emergence herbicidal effect, greenhouse pot test; conditions: 1.0 kg or 0.32 kg of active substance per hectare, 100% = plants have died
Excerpt: (§1) Seeds of monocotyledonous or dicotyledonous weed plants or crop plants are planted in wood-fiber pots in sandy loam and covered with soil. The compounds (I) according to the invention, formulated in the form of wettable powders (WP), are then applied as aqueous suspension or emulsion at a water application rate of 600 I/ha (converted) with the addition of 0.2% of wetting agent to the surface of the covering soil.
(§2) Following the treatment, the pots are placed in a greenhouse and kept under good growth conditions for the test plants. After about 3 weeks, the effect of the preparations is scored visually in comparison with untreated controls (herbicidal effect in percent (%): 100% effect=plants have died, 0% effect=as control plants).

Avena fatua = test: as above; conditions: 1.0 kg or 0.32 kg of active substance per hectare, 100% = plants have died
Excerpt: as §1, §2

Echinochloa crus galli = test: as above; conditions: 1.0 kg or 0.32 kg of active substance per hectare, 100% = plants have died
Excerpt: as §1, §2

Setaria viridis = test: as above; conditions: 1.0 kg or 0.32 kg of active substance per hectare, 100% = plants have died
Excerpt: as §1, §2

harmful plants = test: as above; conditions: application rate of 1 kg or less of active substance per hectare, scored after about 3 weeks
Excerpt: as §1, §2

[1] = system: weed-grasses and broad-leaved weeds; test: Post-emergence herbicidal effect, greenhouse pot test; conditions: application rate of 1 kg and less of active substance per hectare, scored after 3 weeks
Method: Seeds of monocotyledonous or dicotyledonous weed plants or crop plants are planted in wood-fiber pots in sandy loam, covered with soil and grown in a greenhouse under good growth conditions. 2 to 3 weeks after sowing, the test plants are treated in the one-leaf stage. The compounds according to the invention, formulated in the form of wettable powders (WP), are then sprayed onto the green plant parts as aqueous suspension or emulsion at a water application rate of 600 I/ha (converted) with the addition of 0.2% of wetting agent. After 3 weeks' standing time of the test plants in the greenhouse under optimum growth conditions, the effect of the preparations is scored visually in comparison with untreated controls (herbicidal effect in percent (%): 100% effect=plants have died, 0% effect=as control plants).

Row | SMILES | herbicidal activity (Alopecurus myosuroides) [%] | herbicidal activity (Avena fatua) [%] | herbicidal activity (Echinochloa crus galli) [%] | herbicidal activity (Setaria viridis) [%] | herbicidal pre-emergence activity against a number of harmful plants (harmful plants) | post-emergence activity against a broad spectrum of weed-grasses and broad-leaved weeds [1]
1 | COC(=O)Cc1c(C)nn(-c2cncs2)c1-c1cnc(C)cn1 [Compound 8-217] | ≥ 80 | ≥ 80 | ≥ 80 | ≥ 80 | good herbicidal pre-emergence activity | good post-emergence activity
2 | CCOC(=O)c1ncsc1-n1nc(C)c(CC(=O)OC)c1-c1ccccn1 [Compound 8-241, Ethyl 5-[4-(2-methoxy-2-oxoethyl)-3-methyl-5-(pyridin-2-yl)-1H-pyrazol-1-yl]-1,3-thiazole-4-carboxylate] |  |  |  |  | good herbicidal pre-emergence activity | good post-emergence activity
3 | COC(=O)Cc1c(C)nn(-c2cncs2)c1-c1ccc(-c2ccccc2)cc1 [Compound 8-276] |  |  |  |  | good herbicidal pre-emergence activity | good post-emergence activity
4 | COC(=O)Cc1c(C)nn(-c2cncs2)c1-c1cc(C)c(Cl)cn1 [Compound 8-294] |  |  |  |  | good herbicidal pre-emergence activity | good post-emergence activity
5 | CCOC(=O)Cc1c(C)nn(-c2cncs2)c1-c1ccc(Cl)cc1 [Compound 9-4] |  |  |  |  | good herbicidal pre-emergence activity | good post-emergence activity
6 | Cc1nn(-c2cncs2)c(-c2ccc(Cl)cc2)c1CC(=O)OCC1CC1 [Compound 9-122] |  |  |  |  | good herbicidal pre-emergence activity | good post-emergence activity
